{"source": "patent US9598387B2", "about": "(Southern Research Institute, priority 2012, dated 2017)", "key": {"Rats": {"tested_on": "Rats", "test": "Cue-induced reinstatement of cocaine-seeking", "assay_type": "in vivo, rat", "conditions": "3 doses ip 20 minutes before reinstatement session", "procedure": "Rats were trained to self-administer cocaine (1.0 mg/kg/injection) under a FR1 schedule of reinforcement in daily 3-h sessions and, after stable responding was established (as described above) the schedule was changed to FR3. After stable responding under the FR3 schedule was established, extinction training began. Stable responding was defined as follows: 12 consecutive sessions in which total rewards per session was greater than 20 and in which total rewards per session for the last three sessions was within ±10% of the mean of the three sessions. […] After extinction criteria were met each rat was tested in one 1-h reinstatement session; each rat received an ip injection of vehicle or one of 3 doses of the test compound and 20 minutes later was placed in the operant chamber. At the start of the reinstatement session the cocaine-associated cues (light on for 20 s and pump on for 4.5 s) were presented twice, once at 25 sec and again at 2 min into the session. Presses on the active lever illuminated the light and activated the pump."}, "Long Evans rats [1]": {"tested_on": "Long Evans rats", "test": "Spontaneous locomotor activity", "assay_type": "in vivo, rat", "conditions": "10 minutes prior to placement in chambers", "procedure": "(§1) These studies were performed using Long Evans rats using standard protocols. Locomotor activity chambers measuring 43×43×30 cm (l×w×h) were used for the locomotor activity experiments. Each chamber was equipped with eight photo-emitters positioned along the length of the chamber 6 cm above the floor, each paired directly opposite a photocell. Locomotor activity counts were registered when adjacent beams were broken consecutively. Before receiving any drug, the animals (n=96) were placed in locomotor activity chambers for habituation, for 2 hours per day for 3 consecutive days. Based on the locomotor activity score obtained during the third habituation session, animals were assigned into one of […] treatment groups. […] For the 113 alone experiments, each of the four groups received one of 4 doses of 113 (0, 3.75, 7.5 or 15 mg/kg) 10 minutes prior to placement in the activity chambers. For the 113 cocaine interaction experiments, each of 4 groups were injected with one of the 4 doses of the compound (0, 3.75, 7.5 or 15 mg/kg) 10 minutes before receiving 10 mg/kg of cocaine as the second injection. […] The locomotor counts in the 113 alone and 113/cocaine experiments were analyzed using two separate mixed-design ANOVAs with 113 dose (between-groups) and 5-min bins (repeated measures) as factors. […]"}, "D3R": {"target": "D3R (Homo sapiens (Human), UniProt P35462)", "sequence (P35462 whole entry)": "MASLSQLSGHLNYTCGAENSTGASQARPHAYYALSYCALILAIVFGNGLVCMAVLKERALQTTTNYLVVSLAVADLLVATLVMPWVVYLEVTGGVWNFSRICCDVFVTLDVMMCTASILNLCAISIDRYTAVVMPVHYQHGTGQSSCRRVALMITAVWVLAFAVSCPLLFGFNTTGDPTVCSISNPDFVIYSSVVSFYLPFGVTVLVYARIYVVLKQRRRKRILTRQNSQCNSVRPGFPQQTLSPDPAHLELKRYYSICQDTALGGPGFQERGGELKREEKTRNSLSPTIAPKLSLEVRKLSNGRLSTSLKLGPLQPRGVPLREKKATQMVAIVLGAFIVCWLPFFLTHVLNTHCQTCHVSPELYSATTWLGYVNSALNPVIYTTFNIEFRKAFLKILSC", "test": "D3 Mitogenesis Functional Assay (3H-thymidine uptake, CHOp-D3 cells)", "assay_type": "cell-based", "how_it_was_run": "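CHO cells expressing human D3, serum-starved 24 h, then given compound (agonist mode) or antagonist plus 30 nM quinpirole final for 16 h at 37 °C. A 2 h [3H]thymidine pulse was used for uptake.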"}, "[2]": {"target": "human D2-long dopamine receptor (Homo sapiens (Human), UniProt P14416)", "sequence (P14416 whole entry)": "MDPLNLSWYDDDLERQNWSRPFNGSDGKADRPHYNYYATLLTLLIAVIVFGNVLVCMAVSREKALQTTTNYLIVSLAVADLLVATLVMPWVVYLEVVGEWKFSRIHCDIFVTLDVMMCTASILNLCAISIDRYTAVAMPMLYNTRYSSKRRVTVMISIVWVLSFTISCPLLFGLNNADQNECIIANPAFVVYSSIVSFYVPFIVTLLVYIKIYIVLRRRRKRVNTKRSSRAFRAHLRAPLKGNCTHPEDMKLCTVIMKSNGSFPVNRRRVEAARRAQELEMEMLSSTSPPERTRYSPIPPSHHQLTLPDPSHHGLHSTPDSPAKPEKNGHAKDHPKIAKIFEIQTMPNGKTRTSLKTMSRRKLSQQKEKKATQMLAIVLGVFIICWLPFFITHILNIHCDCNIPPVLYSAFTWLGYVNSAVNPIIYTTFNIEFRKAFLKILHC", "test": "Radioligand binding (125I-IABN competition), D2", "conditions": "HEK cell membranes expressing human D2-long", "procedure": "The affinities of the target compounds were determined using radioligand binding experiments. […] Competition curves were modeled for a single site. Data from competition dose-response curves were analyzed using Tablecurve program (Jandel). IC50 values were converted to equilibrium dissociation constants (Ki values) using the Cheng and Prusoff correction."}, "D2LR": {"target": "D2LR (Homo sapiens (Human), UniProt P14416)", "sequence (P14416 whole entry)": "as above", "test": "β-Arrestin Recruitment Assay, CHO-K1 DRD2L", "assay_type": "cell-based", "conditions": "antagonist vs EC80 6 nM Pergolide, CHO-K1 DRD2L cells; read-out: D2 IC50", "procedure": "Antagonist potency of the compounds against agonist induced recruitment of β-arrestin by D3R and D2LR was measured using DiscoverRx PathHunter eXpress kits. […] After incubation at 37° C. for 90 min, the DiscoveRx detection reagent was added, the plates were incubated at room temperature for 60 min and the luminescence was measured on a Synergy 4 plate reader (BioTek). The data were plotted and the agonist EC80 values were calculated using GraphPad Prism software. For antagonist activity, the cells were plated as described above and treated with multiple concentrations (starting from 500 nM, half log dilution, 10 dose points) of the test compounds in Plating Reagent with 0.1% DMSO."}, "Long Evans rats [3]": {"tested_on": "Long Evans rats", "test": "Food self-administration under PR schedule of reinforcement", "assay_type": "in vivo, rat", "conditions": "3.75 mg dose vs 0; t(7)=0.43, p=0.66", "procedure": "These studies were performed using Long Evans rats using standard protocols. Training and testing took place in ventilated and sound-attenuated operant chambers measuring 30×21×18 cm. Each chamber contained two levers, one light above each of the levers, and a food trough. Each lever was positioned 2.5 cm from the rod floor and the food trough (measuring 5×5 cm) was centered between the two levers. A different set of animals (n=8) was trained to press a lever reinforced by food under a FR1 schedule of reinforcement. […] Percentage of baseline BPs for food self-administration was analyzed using a dependent measures t-test comparing the 0 and 3.75 mg doses of 113."}, "Long Evans rats [4]": {"tested_on": "Long Evans rats", "test": "Cocaine-induced locomotor activity", "assay_type": "in vivo, rat", "conditions": "3.75, 7.5 or 15 mg/kg 10 minutes before 10 mg/kg cocaine; p<0.05", "procedure": "as §1"}}}
{"smiles": "CC(C)(C)c1nc(N2CCN(CCCCNC(=O)c3cn4ccccc4n3)CC2)cc(C(F)(F)F)n1", "note": "[Compound 113, N-(4-(4-(2-(tert-Butyl)-6-(trifluoromethyl)pyrimidin-4-yl)piperazin-1-yl)butyl)imidazo[1,2-a]pyridine-2-carboxamide]", "values": [{"measurement": "cue-induced reinstatement (active lever presses, 1-h test)", "setting": "Rats", "value": "strongly reduced in a dose-related fashion"}, {"measurement": "spontaneous locomotor activity", "setting": "Long Evans rats [1]; 3.75 mg dose", "value": "had no effect on spontaneous locomotor activity"}, {"measurement": "spontaneous locomotor activity", "setting": "Long Evans rats [1]; 7.5 and 15 mg doses", "value": "appeared to reduce locomotor activity in the first 5 minutes of testing but did not affect activity after that"}, {"measurement": "Emax at 10 µM", "setting": "D3R; at 10 μM, % maximum stimulation vs quinpirole (100%), read-out: D3 Agonist Emax", "value": 0, "unit": "%"}, {"measurement": "IC50", "setting": "D3R; inhibition of quinpirole (30 nM final) stimulation of mitogenesis, read-out: D3 Antagonist IC50", "value": "157 ± 34", "unit": "nM"}, {"measurement": "Ki", "setting": "[2]", "value": "511 ± 65.6", "unit": "nM"}, {"measurement": "IC50", "setting": "D2LR", "value": "261 ± 54", "unit": "nM"}, {"measurement": "percentage of baseline BPs for food self-administration under PR schedule", "setting": "Long Evans rats [3]", "value": "did not affect food self-administration"}, {"measurement": "cocaine-induced locomotor activity", "setting": "Long Evans rats [4]", "value": "significantly reduce cocaine-induced locomotor activity in a dose-related fashion"}]}
